22 compounds from ChEMBL document CHEMBL1138300, “Tris-azaaromatic quaternary ammonium salts: Novel templates as antagonists at nicotinic receptors mediating nicotine-evoked dopamine release” (Bioorg Med Chem Lett, 2007) can be followed below.

The target in assay [1] is Neuronal acetylcholine receptor; alpha4/beta2 (Rattus norvegicus) (UniProt P09483+P12390). The assay can be described thus: Displacement of [3H]NIC from alpha-4-beta-2 nAChR in rat brain membrane at 100 uM. The format is cell membranes. On the technique in general: Displacement assays read how much labelled ligand stays bound in the presence of the test substance.
Assay [2] addresses Neuronal acetylcholine receptor subunit alpha-7 (Rattus norvegicus) (UniProt Q05941). The assay can be described thus: Displacement of [3H]MLA from alpha-7 nAChR in rat brain membrane at 100 uM. It is filed as cell membranes.
Assay [3] in a line: Antagonist activity at nAChR in rat striatal slices assessed as inhibition of nicotine-evoked [3H]dopamine release at 100 uM. The format is functional. The settings on record: for inhibition at 100 µM: Rattus norvegicus.
Assay [4] can be described thus: Antagonist activity at nAChR in rat striatal slices assessed as inhibition of nicotine-evoked [3H]dopamine release. The format is functional.

Chain of Neuronal acetylcholine receptor subunit alpha-7 (Rattus norvegicus) (Q05941 whole entry): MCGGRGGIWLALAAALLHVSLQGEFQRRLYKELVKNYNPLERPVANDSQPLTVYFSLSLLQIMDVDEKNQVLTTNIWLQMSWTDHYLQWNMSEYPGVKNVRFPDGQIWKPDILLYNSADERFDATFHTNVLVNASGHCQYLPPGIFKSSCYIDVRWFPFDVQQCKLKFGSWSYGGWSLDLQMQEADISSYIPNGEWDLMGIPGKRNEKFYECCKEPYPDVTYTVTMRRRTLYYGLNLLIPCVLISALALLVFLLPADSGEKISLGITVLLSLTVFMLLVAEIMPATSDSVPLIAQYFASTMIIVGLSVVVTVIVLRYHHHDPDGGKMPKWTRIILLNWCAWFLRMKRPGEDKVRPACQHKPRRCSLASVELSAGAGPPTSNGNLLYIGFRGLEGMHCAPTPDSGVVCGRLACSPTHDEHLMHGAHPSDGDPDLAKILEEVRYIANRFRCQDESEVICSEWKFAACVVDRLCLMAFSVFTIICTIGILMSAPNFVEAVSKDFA

As usually defined, the inhibition is the drop in the measured response relative to a control, in per cent. Take `CCCCc1ccc[n+](CCCC#Cc2cc(C#CCCC[n+]3cccc(CCCC)c3)cc(C#CCCC[n+]3cccc(CCCC)c3)c2)c1`: the inhibition amounted to 6.8% in assay [1] and 30% in assay [2]. Also, the inhibition at 100 µM in assay [3] amounted to 28%.

The IC50 is the concentration needed to halve the response being measured. With `Cc1ccc[n+](CCCC#Cc2cc(C#CCCC[n+]3cccc(C)c3)cc(C#CCCC[n+]3cccc(C)c3)c2)c1.[Br-].[Br-].[Br-]`, in assay [4], the IC50 came to 0.2 nM. The inhibition in assay [1] came out at 10%. In addition, the inhibition in assay [2] came to 0%. Besides, in assay [3], the Imax was 67% and the inhibition at 100 µM amounted to 40%.

Take `Cc1ccc[n+](CCCCCc2cc(CCCCC[n+]3cccc(C)c3)cc(CCCCC[n+]3cccc(C)c3)c2)c1.[Br-].[Br-].[Br-]`: in assay [4], the IC50 was found to be 2 nM. In assay [1], this compound showed an inhibition of 14%. This compound had an inhibition in assay [2] of 1.2%. For the same compound, in assay [3], the Imax amounted to 50% and the inhibition at 100 µM was 58%.

For the compound `CN1CCC[C@H]1c1ccc[n+](CCCCCc2cc(CCCCC[n+]3cccc([C@@H]4CCCN4C)c3)cc(CCCCC[n+]3cccc([C@@H]4CCCN4C)c3)c2)c1`, the inhibition was 81% in assay [1] and 7.9% in assay [2]. Besides, the inhibition at 100 µM in assay [3] turned out to be 26%.

Consider `C(#Cc1cc(C#CCCC[n+]2cccc3ccccc32)cc(C#CCCC[n+]2cccc3ccccc32)c1)CCC[n+]1cccc2ccccc21`, for which the inhibition was found to be 7% in assay [1] and 21% in assay [2]. Besides, the inhibition at 100 µM in assay [3] is 29%.

Regarding `C(#Cc1cc(C#CCCC[n+]2ccc3ccccc3c2)cc(C#CCCC[n+]2ccc3ccccc3c2)c1)CCC[n+]1ccc2ccccc2c1`, the inhibition in assay [1] is 9.2%; in assay [2], 4.5%. Also, the inhibition at 100 µM in assay [3] came out at 44%.

Regarding `Cc1cc[n+](CCCC#Cc2cc(C#CCCC[n+]3ccc(C)cc3)cc(C#CCCC[n+]3ccc(C)cc3)c2)cc1`, the results for the inhibition in assay [1] and in assay [2] were 21% and 0%, respectively. Further, in assay [3], the inhibition at 100 µM came to 32%.

Consider `C(#Cc1cc(C#CCCC[n+]2cccc(-c3ccccc3)c2)cc(C#CCCC[n+]2cccc(-c3ccccc3)c2)c1)CCC[n+]1cccc(-c2ccccc2)c1`, for which the values for the inhibition in assay [1] and in assay [2] were 15% and 39%, respectively. For the same compound, in assay [3], the inhibition at 100 µM was 29%.

Regarding `Cc1cc[n+](CCCCCc2cc(CCCCC[n+]3ccc(C)c(C)c3)cc(CCCCC[n+]3ccc(C)c(C)c3)c2)cc1C`, the inhibition in assay [1] was found to be 9.3%; in assay [2], 0.2%. In addition, the inhibition at 100 µM in assay [3] amounted to 50%.

`Cc1cc(C)c[n+](CCCC#Cc2cc(C#CCCC[n+]3cc(C)cc(C)c3)cc(C#CCCC[n+]3cc(C)cc(C)c3)c2)c1`: the inhibition in assay [1] was found to be 8.9%; in assay [2] it was 0%. The inhibition at 100 µM in assay [3] amounted to 27%.

As for `Cc1cc(C)c[n+](CCCCCc2cc(CCCCC[n+]3cc(C)cc(C)c3)cc(CCCCC[n+]3cc(C)cc(C)c3)c2)c1`, the inhibition in assay [1] amounted to 11%; in assay [2], 6.5%. Besides, in assay [3], the inhibition at 100 µM was 39%.

As to `Cc1cc[n+](CCCC#Cc2cc(C#CCCC[n+]3ccc(C)c(C)c3)cc(C#CCCC[n+]3ccc(C)c(C)c3)c2)cc1C`, the results for the inhibition in assay [1] and in assay [2] were 4% and 1.8%, respectively. In addition, the inhibition at 100 µM in assay [3] came out at 18%.

As for `CCCCCCCCCCCC[n+]1cccc(C)c1.[I-]`, the concentration for half-maximal inhibition (IC50) in assay [4] came to 30 nM. Moreover, the Imax in assay [3] came out at 62%.

On to `Cc1ccc[n+](CCCCCCCCCCCC[n+]2cccc(C)c2)c1.[Br-].[Br-]`, for which the half-inhibitory concentration (IC50) in assay [4] came out at 2 nM. Further, the Imax in assay [3] stood at 68%.

Take `c1ccc(-c2ccc[n+](CCCCCc3cc(CCCCC[n+]4cccc(-c5ccccc5)c4)cc(CCCCC[n+]4cccc(-c5ccccc5)c4)c3)c2)cc1`: the inhibition came to 14% in assay [1] and 19% in assay [2]. Also, the inhibition at 100 µM in assay [3] amounted to 6%.

For `Cc1cccc[n+]1CCCC#Cc1cc(C#CCCC[n+]2ccccc2C)cc(C#CCCC[n+]2ccccc2C)c1.[Br-].[Br-].[Br-]`, the IC50 in assay [4] came to 4 nM. Moreover, the inhibition in assay [1] was 4.5%. Besides, in assay [2], the inhibition turned out to be 0%. In assay [3], the Imax was found to be 50% and the inhibition at 100 µM was 51%.

For `Cc1cc[n+](CCCCCc2cc(CCCCC[n+]3ccc(C)cc3)cc(CCCCC[n+]3ccc(C)cc3)c2)cc1`, the figures for the inhibition in assay [1] and in assay [2] were 6% and 0%, respectively. Also, the inhibition at 100 µM in assay [3] came out at 37%.

Consider `c1ccc2c[n+](CCCCCc3cc(CCCCC[n+]4ccc5ccccc5c4)cc(CCCCC[n+]4ccc5ccccc5c4)c3)ccc2c1`, for which the inhibition in assay [1] came out at 8.4%; in assay [2], 2.5%. The inhibition at 100 µM in assay [3] was 28%.

The compound `CN1CCC[C@H]1c1ccc[n+](CCCC#Cc2cc(C#CCCC[n+]3cccc([C@@H]4CCCN4C)c3)cc(C#CCCC[n+]3cccc([C@@H]4CCCN4C)c3)c2)c1.[Br-].[Br-].[Br-]` showed an inhibition in assay [1] of 44%. Also, in assay [2], the inhibition is 4.2%. In assay [3], the Imax was found to be 50% and the inhibition at 100 µM was determined as 59%.

Turning to `CCCCc1ccc[n+](CCCCCc2cc(CCCCC[n+]3cccc(CCCC)c3)cc(CCCCC[n+]3cccc(CCCC)c3)c2)c1`, the figures for the inhibition in assay [1] and in assay [2] were 6.2% and 4.4%, respectively. In assay [3], the inhibition at 100 µM came to 68%.

For `Cc1cccc[n+]1CCCCCc1cc(CCCCC[n+]2ccccc2C)cc(CCCCC[n+]2ccccc2C)c1`, the inhibition in assay [1] worked out at 8.6%; in assay [2], 0%. The inhibition at 100 µM in assay [3] came out at 27%.

With `c1ccc2c(c1)ccc[n+]2CCCCCc1cc(CCCCC[n+]2cccc3ccccc32)cc(CCCCC[n+]2cccc3ccccc32)c1`, the inhibition came to 5.7% in assay [1] and 6.8% in assay [2]. The inhibition at 100 µM in assay [3] came to 8%.
